The text below walks through data of PMC11842024, “Reversible male contraception by targeted inhibition of serine/threonine kinase 33” (Science (New York, N.Y.), 2024).

Structures are written as SMILES.

Assay [1] concerns the target T1, STK33 (Homo sapiens, UniProt Q9BYT3). The experiment in a line: LanthaScreen binding assay (ThermoFisher SelectScreen). Further details: purchased SelectScreen Services (ThermoFisher). An excerpt:
In vitro biochemical assays. Several small molecule assays were outsourced to SelectScreen Services (ThermoFisher) for STK33 and for off-target kinases (data sets are available on demand).
These assays are LanthaScreen (binding assay) and Z’-LYTE (activity assay). Dose-responses were done with at least 5 different concentrations in duplicates, and parameters were optimized by calculations described below and provided with standard errors.
Calculation of Kd values for kinase inhibitors that bind to the ATP pocket of a kinase from LanthaScreen binding data. DynaFit (71) was used to fit complex equilibria where a tracer is displaced by a dilution series of a kinase inhibitor. This method relies on the concentration of inhibitor, as well as the concentration of kinase and tracer, and Kd of the tracer. The latter three parameters are tabulated by ThermoFisher for each kinase in the LanthaScreen assay panel. […]
Since Kd and Ki values are defined the same way, in other words, Kd = [E] [I] / [EI] = Ki, Kd and Ki values can be compared. […]
For orientation: Time-resolved FRET reads energy transfer from a long-lived donor to a nearby acceptor.

Another assay has as its target T2, CSNK1G2 (Homo sapiens, UniProt P78368).
T2 construct: against 192 full-length protein kinases in human embryonic kidney 293 (HEK293) cells; host or cells: HEK293
The experiment in a line: NanoBRET K192 assay (Promega). It is filed as cell-based. Particulars: HEK293 cells. As to the method:
(§1) NanoBRET Target Engagement K192 assay. HEK293 cells (ATCC) were cultured in DMEM (Gibco) + 10% FBS (Seradigm) and incubated in a humidified 37°C/5% CO2 incubator. The NanoBRET Target Engagement K192 Kinase Selectivity System (Promega) contains 192 unique transfection-ready NanoLuc/Kinase fusions, pre-diluted in either transfection carrier DNA or relevant cyclin DNA. These NanoLuc/Kinase fusion constructs were transfected into HEK293 cells using Fugene HD (Promega) according to the manufacturer’s protocol. Briefly, 10 µL of a 20 µg/mL DNA solution was added to white, TC-treated 96-well assay plates (Corning), followed by 30 µL of a diluted Fugene HD solution (20 µL Fugene/1 mL Opti-MEM). After transfection complex formation, HEK293 cells were resuspended at 3.3 × 105 c/mL in Opti-MEM + 1% FBS and added at a volume of 60 µL per well, to result in approximately 20000 cells/well. Cells were incubated in a humidified 37°C/5% CO2 incubator for 20 hours. Tracer K-10 (Promega) was prepared at a 100× concentration in DMSO (Sigma) and diluted to a working concentration of 10× in tracer dilution buffer (12.5 mM HEPES, 31.25% PEG400, pH 7.5) (Promega). Test compounds were prepared as concentrated stock solutions in DMSO and diluted in Opti-MEM to prepare 10× working stocks. Cells were equilibrated with test compounds and Tracer K-10 for 2 hours prior to BRET measurements. For target engagement analysis, Tracer K-10 was added to cells at one of 4 […]
(§2) manufacturer’s protocol. To measure BRET, NanoBRET NanoGlo Substrate and Extracellular NanoLuc Inhibitor (Promega) were added according to the manufacturer’s protocol, and filtered luminescence was measured on a GloMax Discover luminometer equipped with 450 nm BP filter (donor) and 600 nm LP filter (acceptor), using 0.5 s integration time. Milli-BRET units are calculated by multiplying the raw BRET units by 1000.
(§3) For Fractional Occupancy determination, the following equation was used:
(§4) % Occupancy = [1-(X-Z)/(Y-Z)]×100
(§5) Where X = BRET in the presence of the test compound and Tracer K10, Y = BRET in the presence of Tracer K10 only, and Z = Full occupancy, or BRET in the absence of the test compound and […]
(§6) Tracer K10. […]
For orientation: In BRET a luciferase serves as donor, and the signal depends on an acceptor being close.

For a further assay, the target named is T3, PHKG1 (Homo sapiens, UniProt Q16816).
T3 construct: against 192 full-length protein kinases in human embryonic kidney 293 (HEK293) cells; host or cells: HEK293
The assay is described as follows: NanoBRET K192 assay (Promega). Format: cell-based. Particulars: HEK293 cells. As to the method:
as §1, §2, §3, §4, §5, §6

The target in another assay is T4, GAK (Homo sapiens, UniProt O14976).
T4 construct: against 192 full-length protein kinases in human embryonic kidney 293 (HEK293) cells; host or cells: HEK293
T4 sequence (O14976 whole entry): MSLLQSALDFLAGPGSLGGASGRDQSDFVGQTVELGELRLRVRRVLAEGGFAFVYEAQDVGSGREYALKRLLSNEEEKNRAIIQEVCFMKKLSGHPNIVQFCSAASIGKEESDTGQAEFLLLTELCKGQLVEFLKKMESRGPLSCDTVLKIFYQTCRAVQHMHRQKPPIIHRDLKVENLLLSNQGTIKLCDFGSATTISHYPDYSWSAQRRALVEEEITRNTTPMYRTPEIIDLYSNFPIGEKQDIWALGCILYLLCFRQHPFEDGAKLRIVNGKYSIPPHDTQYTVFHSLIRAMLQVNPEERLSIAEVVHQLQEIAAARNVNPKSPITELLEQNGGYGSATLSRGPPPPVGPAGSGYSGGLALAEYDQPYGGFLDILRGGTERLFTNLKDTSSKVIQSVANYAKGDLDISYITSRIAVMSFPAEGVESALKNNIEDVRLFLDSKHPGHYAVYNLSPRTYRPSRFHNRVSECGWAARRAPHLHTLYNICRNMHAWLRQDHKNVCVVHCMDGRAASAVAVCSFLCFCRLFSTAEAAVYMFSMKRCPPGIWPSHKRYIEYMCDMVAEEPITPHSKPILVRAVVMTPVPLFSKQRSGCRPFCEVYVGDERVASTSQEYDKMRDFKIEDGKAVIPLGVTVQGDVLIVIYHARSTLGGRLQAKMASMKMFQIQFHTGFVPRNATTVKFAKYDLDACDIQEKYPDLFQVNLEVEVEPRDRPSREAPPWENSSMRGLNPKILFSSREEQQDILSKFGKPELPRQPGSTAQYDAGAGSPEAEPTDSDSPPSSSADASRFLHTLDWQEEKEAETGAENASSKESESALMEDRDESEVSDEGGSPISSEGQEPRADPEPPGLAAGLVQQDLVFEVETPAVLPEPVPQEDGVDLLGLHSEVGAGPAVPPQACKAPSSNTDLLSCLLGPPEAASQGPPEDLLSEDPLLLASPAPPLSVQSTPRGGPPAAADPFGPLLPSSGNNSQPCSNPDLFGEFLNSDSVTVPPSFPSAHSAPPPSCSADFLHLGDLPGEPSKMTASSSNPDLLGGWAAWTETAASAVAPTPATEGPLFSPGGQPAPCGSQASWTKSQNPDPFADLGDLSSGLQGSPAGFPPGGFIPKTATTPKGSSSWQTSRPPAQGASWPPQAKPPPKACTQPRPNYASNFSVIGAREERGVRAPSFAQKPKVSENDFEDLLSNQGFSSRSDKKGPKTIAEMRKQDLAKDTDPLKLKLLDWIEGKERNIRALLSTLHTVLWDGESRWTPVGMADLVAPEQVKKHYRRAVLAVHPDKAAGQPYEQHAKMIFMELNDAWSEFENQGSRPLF
The experiment in a line: NanoBRET K192 assay (Promega). It is filed as cell-based. The settings on record: HEK293 cells. As to the method: as §1, §2, §3, §4, §5, §6

The target of another assay is T5, PTK2B (Homo sapiens, UniProt Q14289).
T5 construct: against 192 full-length protein kinases in human embryonic kidney 293 (HEK293) cells; host or cells: HEK293
The experiment in a line: NanoBRET K192 assay (Promega). It is filed as cell-based. The settings on record: HEK293 cells. As to the method: as §1, §2, §3, §4, §5, §6

The target in the next assay is T6, NTRK2 (Homo sapiens, UniProt Q16620).
T6 construct: against 192 full-length protein kinases in human embryonic kidney 293 (HEK293) cells; host or cells: HEK293
The experiment in a line: NanoBRET K192 assay (Promega). Format: cell-based. The settings on record: HEK293 cells. As to the method:
as §1, §2, §3, §4, §5, §6

For the next assay, the target named is T7, FER (Homo sapiens, UniProt P16591).
T7 construct: against 192 full-length protein kinases in human embryonic kidney 293 (HEK293) cells; host or cells: HEK293
The experiment in a line: NanoBRET K192 assay (Promega). It is filed as cell-based. The settings on record: HEK293 cells. As to the method:
as §1, §2, §3, §4, §5, §6

A further assay addresses T8, EPHA1 (Homo sapiens, UniProt P21709).
T8 construct: against 192 full-length protein kinases in human embryonic kidney 293 (HEK293) cells; host or cells: HEK293
The experiment in a line: NanoBRET K192 assay (Promega). Format: cell-based. Particulars: HEK293 cells. As to the method:
as §1, §2, §3, §4, §5, §6

Another assay deals with T9, NTRK1 (Homo sapiens, UniProt P04629).
T9 construct: against 192 full-length protein kinases in human embryonic kidney 293 (HEK293) cells; host or cells: HEK293
The assay is described as follows: NanoBRET K192 assay (Promega). Particulars: HEK293 cells. It is filed as cell-based. As to the method: as §1, §2, §3, §4, §5, §6

The next assay concerns the target T10, FLT3 (Homo sapiens, UniProt P36888).
T10 construct: against 192 full-length protein kinases in human embryonic kidney 293 (HEK293) cells; host or cells: HEK293
The experiment in a line: NanoBRET K192 assay (Promega). Format: cell-based. Particulars: HEK293 cells. As to the method: as §1, §2, §3, §4, §5, §6

The next assay concerns the target T11, AAK1 (Homo sapiens, UniProt Q2M2I8).
T11 construct: against 192 full-length protein kinases in human embryonic kidney 293 (HEK293) cells; host or cells: HEK293
The experiment in a line: NanoBRET K192 assay (Promega). Format: cell-based. The settings on record: HEK293 cells. As to the method:
as §1, §2, §3, §4, §5, §6

In a further assay the target is T12, BMP2K (Homo sapiens, UniProt Q9NSY1).
T12 construct: against 192 full-length protein kinases in human embryonic kidney 293 (HEK293) cells; host or cells: HEK293
The assay is described as follows: NanoBRET K192 assay (Promega). Particulars: HEK293 cells. Format: cell-based. As to the method: as §1, §2, §3, §4, §5, §6

For the next assay, the target named is T13, PTK2 (Homo sapiens, UniProt Q05397).
T13 construct: against 192 full-length protein kinases in human embryonic kidney 293 (HEK293) cells; host or cells: HEK293
The experiment in a line: NanoBRET K192 assay (Promega). Particulars: HEK293 cells. Format: cell-based. As to the method:
as §1, §2, §3, §4, §5, §6

The target of another assay is T14, STK4 (Homo sapiens, UniProt Q13043).
T14 construct: against 192 full-length protein kinases in human embryonic kidney 293 (HEK293) cells; host or cells: HEK293
The assay is described as follows: NanoBRET K192 assay (Promega). Particulars: HEK293 cells. Format: cell-based. As to the method:
as §1, §2, §3, §4, §5, §6

The next assay has as its target T15, MAP4K2 (Homo sapiens, UniProt Q12851).
T15 construct: against 192 full-length protein kinases in human embryonic kidney 293 (HEK293) cells; host or cells: HEK293
The experiment in a line: NanoBRET K192 assay (Promega). It is filed as cell-based. The settings on record: HEK293 cells. As to the method: as §1, §2, §3, §4, §5, §6

The next assay deals with T16, PHKG2 (Homo sapiens, UniProt P15735).
T16 construct: against 192 full-length protein kinases in human embryonic kidney 293 (HEK293) cells; host or cells: HEK293
The assay is described as follows: NanoBRET K192 assay (Promega). It is filed as cell-based. Particulars: HEK293 cells. As to the method:
as §1, §2, §3, §4, §5, §6

Assay [2] addresses T1, STK33. The experiment in a line: NanoBRET K192 assay (Promega). Format: cell-based. The settings on record: HEK293 cells. Further details: host or cells: HEK293 (HEK293T cultured). As to the method:
as §1, §2, §3, §4, §5, §6

The next assay addresses RET (Homo sapiens, UniProt P07949). The assay is described as follows: NanoBRET K192 assay (Promega). Format: cell-based. Particulars: HEK293 cells. Further details: host or cells: HEK293 (HEK293T cultured). As to the method:
as §1, §2, §3, §4, §5, §6

Another assay addresses CLK1 (Homo sapiens, UniProt P49759). The assay is described as follows: NanoBRET K192 assay (Promega). Format: cell-based. More on the design: host or cells: HEK293 (HEK293T cultured). The settings on record: HEK293 cells. As to the method: as §1, §2, §3, §4, §5, §6
The next assay deals with CLK2 (Homo sapiens, UniProt P49760). The experiment in a line: NanoBRET K192 assay (Promega). It is filed as cell-based. Further details: host or cells: HEK293 (HEK293T cultured). The settings on record: HEK293 cells. As to the method: as §1, §2, §3, §4, §5, §6
Sequence of CLK2 (P49760 whole entry): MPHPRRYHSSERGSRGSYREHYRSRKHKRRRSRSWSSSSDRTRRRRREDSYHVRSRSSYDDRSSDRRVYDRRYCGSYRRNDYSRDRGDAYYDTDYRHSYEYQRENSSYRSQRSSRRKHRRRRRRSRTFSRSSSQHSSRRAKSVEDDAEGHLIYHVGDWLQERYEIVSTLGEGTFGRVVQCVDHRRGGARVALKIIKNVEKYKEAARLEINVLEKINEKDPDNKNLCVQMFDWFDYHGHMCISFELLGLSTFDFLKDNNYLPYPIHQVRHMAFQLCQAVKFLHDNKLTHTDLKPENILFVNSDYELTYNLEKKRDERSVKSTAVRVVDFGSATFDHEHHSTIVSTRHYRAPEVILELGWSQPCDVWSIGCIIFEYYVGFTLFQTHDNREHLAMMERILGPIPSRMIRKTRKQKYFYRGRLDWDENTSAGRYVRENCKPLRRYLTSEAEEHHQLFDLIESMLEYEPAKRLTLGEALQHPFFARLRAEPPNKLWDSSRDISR

T1 sequence (Q9BYT3 whole entry): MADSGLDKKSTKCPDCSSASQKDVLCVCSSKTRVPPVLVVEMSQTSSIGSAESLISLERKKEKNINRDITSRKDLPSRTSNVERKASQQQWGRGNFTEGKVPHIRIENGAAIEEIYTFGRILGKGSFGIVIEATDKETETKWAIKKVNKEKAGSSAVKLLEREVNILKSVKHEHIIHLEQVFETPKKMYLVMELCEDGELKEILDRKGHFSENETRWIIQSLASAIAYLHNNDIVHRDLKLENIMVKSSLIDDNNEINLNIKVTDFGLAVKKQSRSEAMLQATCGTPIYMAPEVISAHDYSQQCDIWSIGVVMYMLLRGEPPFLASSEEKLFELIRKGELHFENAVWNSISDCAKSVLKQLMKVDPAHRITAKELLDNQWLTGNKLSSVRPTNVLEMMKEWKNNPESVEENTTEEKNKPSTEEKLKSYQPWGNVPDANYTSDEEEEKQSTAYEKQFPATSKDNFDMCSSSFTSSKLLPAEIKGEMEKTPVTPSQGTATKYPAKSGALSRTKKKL
Sequence of CLK1 (P49759 whole entry): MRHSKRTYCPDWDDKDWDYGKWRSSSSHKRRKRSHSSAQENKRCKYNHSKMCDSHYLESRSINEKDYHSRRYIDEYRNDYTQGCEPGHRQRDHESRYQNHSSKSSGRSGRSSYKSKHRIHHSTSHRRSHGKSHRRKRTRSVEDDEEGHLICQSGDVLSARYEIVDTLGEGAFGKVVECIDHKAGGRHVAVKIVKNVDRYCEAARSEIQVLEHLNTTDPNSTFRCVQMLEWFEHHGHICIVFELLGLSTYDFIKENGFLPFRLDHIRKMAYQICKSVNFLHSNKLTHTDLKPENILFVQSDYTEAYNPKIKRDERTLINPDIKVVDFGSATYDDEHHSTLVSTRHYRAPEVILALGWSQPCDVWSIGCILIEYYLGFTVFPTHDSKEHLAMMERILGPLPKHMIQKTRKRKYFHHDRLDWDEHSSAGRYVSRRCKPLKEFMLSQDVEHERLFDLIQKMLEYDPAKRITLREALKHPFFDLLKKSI
Sequence of RET (P07949 29-1114): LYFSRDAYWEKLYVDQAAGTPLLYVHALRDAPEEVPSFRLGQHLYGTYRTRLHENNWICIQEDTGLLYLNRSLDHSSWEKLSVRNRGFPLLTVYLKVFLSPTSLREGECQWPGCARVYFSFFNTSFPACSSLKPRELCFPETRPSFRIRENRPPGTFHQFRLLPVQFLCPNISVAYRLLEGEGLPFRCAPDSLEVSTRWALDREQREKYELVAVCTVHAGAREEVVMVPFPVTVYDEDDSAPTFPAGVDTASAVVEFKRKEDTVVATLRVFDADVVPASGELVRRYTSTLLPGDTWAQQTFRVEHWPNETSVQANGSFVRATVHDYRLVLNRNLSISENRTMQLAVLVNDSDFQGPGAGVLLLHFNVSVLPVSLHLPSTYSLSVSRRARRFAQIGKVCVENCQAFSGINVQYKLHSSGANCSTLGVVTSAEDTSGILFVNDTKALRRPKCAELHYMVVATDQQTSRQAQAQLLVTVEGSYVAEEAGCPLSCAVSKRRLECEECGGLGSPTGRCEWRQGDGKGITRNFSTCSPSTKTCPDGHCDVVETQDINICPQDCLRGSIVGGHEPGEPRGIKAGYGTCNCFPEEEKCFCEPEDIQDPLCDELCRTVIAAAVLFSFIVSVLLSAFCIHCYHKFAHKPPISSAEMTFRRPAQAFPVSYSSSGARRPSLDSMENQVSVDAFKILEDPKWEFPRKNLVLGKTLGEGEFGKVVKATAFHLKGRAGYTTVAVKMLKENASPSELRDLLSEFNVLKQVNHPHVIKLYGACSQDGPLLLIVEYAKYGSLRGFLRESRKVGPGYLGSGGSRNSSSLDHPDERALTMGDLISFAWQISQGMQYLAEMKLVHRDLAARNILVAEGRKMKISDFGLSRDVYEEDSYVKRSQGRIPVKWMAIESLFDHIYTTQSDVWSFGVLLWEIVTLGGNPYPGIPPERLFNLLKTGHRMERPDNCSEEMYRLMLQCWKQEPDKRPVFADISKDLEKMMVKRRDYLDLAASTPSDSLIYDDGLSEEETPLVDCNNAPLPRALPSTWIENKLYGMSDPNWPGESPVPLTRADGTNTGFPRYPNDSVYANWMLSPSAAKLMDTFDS
T11 sequence (Q2M2I8 whole entry): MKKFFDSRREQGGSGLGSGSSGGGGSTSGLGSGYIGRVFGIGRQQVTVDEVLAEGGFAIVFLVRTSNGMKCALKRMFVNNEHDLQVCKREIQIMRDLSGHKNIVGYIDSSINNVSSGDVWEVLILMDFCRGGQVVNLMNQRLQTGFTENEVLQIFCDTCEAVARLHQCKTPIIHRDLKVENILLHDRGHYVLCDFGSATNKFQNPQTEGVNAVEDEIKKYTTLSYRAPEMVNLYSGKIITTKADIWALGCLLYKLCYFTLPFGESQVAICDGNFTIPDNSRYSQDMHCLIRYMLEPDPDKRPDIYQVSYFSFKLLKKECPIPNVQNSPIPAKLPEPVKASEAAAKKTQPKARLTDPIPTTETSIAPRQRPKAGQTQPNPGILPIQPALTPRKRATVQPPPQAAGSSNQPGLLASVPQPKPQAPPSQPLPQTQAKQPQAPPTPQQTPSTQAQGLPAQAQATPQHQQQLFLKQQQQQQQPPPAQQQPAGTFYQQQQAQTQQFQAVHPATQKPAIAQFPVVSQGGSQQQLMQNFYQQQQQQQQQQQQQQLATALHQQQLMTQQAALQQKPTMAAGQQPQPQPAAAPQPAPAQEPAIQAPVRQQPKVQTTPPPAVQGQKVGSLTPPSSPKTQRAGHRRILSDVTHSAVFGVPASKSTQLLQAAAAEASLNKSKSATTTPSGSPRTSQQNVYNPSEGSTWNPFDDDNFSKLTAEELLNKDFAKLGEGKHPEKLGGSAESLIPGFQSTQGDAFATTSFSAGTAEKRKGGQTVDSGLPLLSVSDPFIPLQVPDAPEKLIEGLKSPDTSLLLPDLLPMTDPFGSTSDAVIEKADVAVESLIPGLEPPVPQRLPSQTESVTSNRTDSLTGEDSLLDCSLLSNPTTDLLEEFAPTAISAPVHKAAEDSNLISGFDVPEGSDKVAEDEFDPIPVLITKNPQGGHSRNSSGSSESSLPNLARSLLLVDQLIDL

The term Kd denotes the constant that tells how readily two partners part at equilibrium. Compound `O=C(c1ccc2[nH]nc(C#Cc3ccccc3-c3ccccc3)c2c1)N1CC2(CCCNC2)C1` [CDD-2807] registered a Kd on STK33 [1] of 0.02 nM. The receptor occupancy at 1 µM on CSNK1G2 was 32.4 ± 1.3%; at PHKG1, 58.4 ± 2.9%; on GAK, 57.4 ± 0.1%; at PTK2B, 45.2 ± 0.2%; on NTRK2 it was 44.5%; on FER, 38 ± 1.2%. Further, the receptor occupancy at 1 µM was found to be 30.6 ± 2.4% on EPHA1; 31.8 ± 1% at NTRK1; 30.3 ± 2.6% on FLT3; 56.4 ± 1.3% on AAK1; 54.5 ± 0.3% at BMP2K; 76.5 ± 0.2% at PTK2. For the same compound, the receptor occupancy at 1 µM at STK4 was determined as 30.3 ± 0.4%; on MAP4K2, 40 ± 0.6%; at PHKG2 it was 59.2 ± 1.2%; on STK33 [2], 95.9%; on RET (HEK293, at 1 µM), 85.8 ± 0.2%; at CLK1 (HEK293, at 1 µM) it was 83.5 ± 0.1%. This compound also gave a receptor occupancy at 1 µM on CLK2 (HEK293, at 1 µM) of 89.7%. Also, the “NanoBRET K192 assay % Occupancy RET” value on RET (at 1 µM) is on record as above 80%. Besides, the “NanoBRET K192 assay % Occupancy CLK1” value on CLK1 (at 1 µM) is reported as above 80%. Moreover, the “NanoBRET K192 assay % Occupancy CLK2” value on CLK2 (at 1 µM) was above 80%.
